Results published in patent US20250328351A1, “CARBONIC ANHYDRASE INHIBITORS AND ANTIBIOTICS AGAINST MULTIDRUG RESISTANT BACTERIA” (Purdue Research Foundation, priority 2018, published 2025).
Converted amounts (≈) assume the structure as drawn. Like-named read-outs stand apart in the source and are kept apart here.

How the values were obtained:
[1] = system: Enterococcus fecalis Strain SF 28073 - NR31972; test: MIC, broth microdilution (CLSI); assay type: cell-based; conditions: Enterococcus, TSB, read-out: MIC
Experimental: (§1) The minimum inhibitory concentrations (MICs) of the compounds and control drugs were determined using the broth microdilution method, according to guidelines outlined by the Clinical and Laboratory Standards Institute (CLSI). Enterococci strains were grown aerobically overnight on tryptone soya agar plates at 37° C., afterwards a bacterial solution equivalent to 0.5 McFarland standard was prepared and diluted in tryptone soy broth (TSB) to achieve a bacterial concentration of about 5×10^5 CFU/mL and seeded in 96-well well plates. Compounds and control drugs were added in the first row of the 96-well plates and serially diluted along the plates. Plates were then incubated aerobically at 37° C. for 18-20 hours. MICs reported in Table 1 are the minimum concentration of the compounds/control drugs that could inhibit completely the visual growth of the bacteria.

[2] = system: Enterococcus faecium Patient #3-1 NR-31912; test: MIC, broth microdilution (CLSI); assay type: cell-based; conditions: Enterococcus faecium, TSB, read-out: MIC
Experimental: as §1

[3] = system: Enterococcus fecalis Strain SF24413 NR31971; test: MIC, broth microdilution (CLSI); assay type: cell-based; conditions: Enterococcus, TSB, read-out: MIC
Experimental: as §1

[4] = system: Mutant-12 of Enterococcus fecalis NR 31975; test: microbe, parasite or virus in culture; assay type: cell-based
[5] = system: Mutant-7 of Enterococcus fecalis NR 31975; test: microbe, parasite or virus in culture; assay type: cell-based
[6] = system: Mutant-13 of Enterococcus fecalis NR 31975; test: microbe, parasite or virus in culture; assay type: cell-based
[7] = system: Mutant-9 of Enterococcus fecalis NR 31975; test: microbe, parasite or virus in culture; assay type: cell-based
VERO cells = test: In vitro cytotoxicity, MTS assay; assay type: cell-based, monkey; conditions: concentration up to 128 μg/mL; two hours incubation
Experimental: Toxicity assessment: Compounds AS005H, AS005J, AS004B, AS005K, AS005A and 005D were assayed (at concentrations of 64 and 128 μg/mL) against a fibroblast-like monkey kidney cell line (VERO cell) to determine the potential toxic effect in vitro. Briefly, cells were cultured in Minimum Essential Medium (MEM) supplemented with 10% fetal bovine serum (FBS), 1 mM sodium pyruvate, and penicillin-streptomycin at 37° C. with CO2 (5%). Control cells received DMSO alone at a concentration equal to that in drug-treated cell samples. The cells were incubated with the compounds (in triplicate) in a 96-well plate at 37° C. with CO2 (5%) for two hours. The assay reagent MTS 3-(4,5-dimethylthiazol-2-yl)-5-(3-carboxymethoxyphenyl)-2-(4-sulfophenyl)-2H-tetrazolium) (Promega, Madison, WI, USA) was subsequently added and the plate was incubated for four hours. Absorbance readings (at OD490) were taken using a kinetic microplate reader (Molecular Devices, Sunnyvale, CA, USA). The quantity of viable cells after treatment with each compound was expressed as a percentage of the viability of DMSO-treated control cells (average of triplicate wells±standard deviation). The toxicity data was analyzed via a two-way ANOVA, with post hoc Dunnet's multiple comparisons test (P<0.05), utilizing GraphPad Prism 6.0 (GraphPad Software, La Jolla, CA).
Percent viable mammalian cells (measured as average absorbance ratio (test agent relative to DMSO) for cytotoxicity analysis of compounds AS005H, AS005J, AS004B, AS005K, AS005A and 005D (tested in triplicates) at 64 and 128 μg/mL against VERO cells using the MTS 3-(4,5-dimethylthiazol-2-yl)-5-(3-carboxymethoxyphenyl)-2-(4-sulfophenyl)-2H-tetrazolium) assay. Dimethyl sulfoxide (DMSO) was used as a negative control to determine a baseline measurement for the cytotoxic impact of each compound. The absorbance values represent an average of a minimum of three samples analyzed for each compound. Error bars represent standard deviation values for the absorbance values.

[8] = system: Mutant-6 of Enterococcus fecalis NR 31975; test: microbe, parasite or virus in culture; assay type: cell-based
[9] = system: Mutant-8 of Enterococcus fecalis NR 31975; test: microbe, parasite or virus in culture; assay type: cell-based
[10] = system: Bacteroides dorei CL02T12C06 HM-719; test: MIC against human normal gut microbiota; assay type: cell-based; conditions: Phocaeicola dorei; Table 3; BHIS broth, anaerobic, 48 hours; read-out: MIC
Summary of the method: (§2)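 Anaerobic gut strains in hemin/vitamin K/L-cysteine-supplemented BHI, Lactobacillus in MRS with 5% CO2. All at ~5×10^5 CFU/ml and 37° C, with 48 h exposure to compound dilution series.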

[11] = system: Bifidobacterium longum subsp. Longum 44B HM 845; test: MIC against human normal gut microbiota; assay type: cell-based; conditions: Table 3, BHIS broth, anaerobic, 48 hours
Summary of the method: as §2

[12] = system: Bacteroides fragilis CL07T00C01 HM-709; test: MIC against human normal gut microbiota; assay type: cell-based; conditions: Table 3, BHIS broth, anaerobic, 48 hours, read-out: MIC
Summary of the method: as §2

[13] = system: Lactobacillus gasseri EX336960VC03 HM-400; test: MIC against human normal gut microbiota; assay type: cell-based; conditions: Table 3, MRS broth, 5% CO2, 48 hours
Summary of the method: as §2

[14] = system: Lactobacillus casei ATCC 334; test: MIC against human normal gut microbiota; assay type: cell-based; conditions: Lacticaseibacillus casei, ATCC334; Table 3; MRS broth, 5% CO2, 48 hours
Summary of the method: as §2

[15] = system: Bifidobacterium breve JCP7499 HM 1120; test: MIC against human normal gut microbiota; assay type: cell-based; conditions: JCP7499HM1120, Table 3, BHIS broth, anaerobic, 48 hours, read-out: MIC
Summary of the method: as §2

With `CC(C)=CC(=O)Nc1nnc(S(N)(=O)=O)s1` [CAI0016, 3-Methyl-N-(5-sulfamoyl-1,3,4-thiadiazol-2-yl)but-2-enamide] the MIC ([1]; Table 1) was 0.5 µg/mL (≈ 1.91 µM), the MIC ([1]; Table 7) was 0.5 µg/mL (≈ 1.91 µM) and the MIC ([2]; Table 1) was 1 µg/mL (≈ 3.81 µM). The MIC ([2]; Table 7) was 0.5 µg/mL (≈ 1.91 µM), the MIC ([3]; Table 1) was 0.5 µg/mL (≈ 1.91 µM) and the MIC ([3]; Table 7) was 0.5 µg/mL (≈ 1.91 µM). For the same compound, the MIC [4] was 8 µg/mL (≈ 30.5 µM), the MIC [5] was 4 µg/mL (≈ 15.2 µM) and the MIC [6] was 4 µg/mL (≈ 15.2 µM). For the same compound, the MIC [7] was 4 µg/mL (≈ 15.2 µM), the “toxicity to VERO cells (percent viable cells, MTS)” value (VERO cells) was “non-toxic” and the MIC [8] was 16 µg/mL (≈ 61 µM). For the same compound, the MIC [9] was 4 µg/mL (≈ 15.2 µM), the MIC [10] was greater than 64 µg/mL and the MIC [11] was greater than 64 µg/mL. The MIC [12] was greater than 64 µg/mL, the MIC [13] was greater than 64 µg/mL and the MIC [14] was greater than 64 µg/mL. The MIC [15] was greater than 64 µg/mL.
